Reference: EP2698384A1, “Detection of synthetic cannabinoids” (priority 2012, dated 2014)
Where a name gives a salt, the structure may show the parent alone. Read-outs that look alike come from different tables or passages of the source.

What was measured:
Assay type in all cases: binding, sheep
Antibody to Immunogen V = test system: Antibody to Immunogen V
Outline: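 Plates coated with anti-Immunogen V IgG; RCS-8 standards (0–80 ng/ml in TBST) compete with hapten-HRP conjugate 1 h at 25°C, TMB readout at 450 nm. IC50 from 4-parameter fit as concentration at half the zero-standard OD; cross-reactivity from single-level cross-reactant versus calibration curve.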

Antibody to Immunogen VI = test system: Antibody to Immunogen VI
Outline: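 Plates coated with IgG from anti-Immunogen VI antiserum; RCS-4 standards (0–20 ng/ml) compete with hapten-HRP conjugate for 1 h at 25°C. TMB read at 450 nm, 4-parameter fit; IC50 at half the zero-standard OD. Cross-reactivity from single-level cross-reactant solutions against calibration curves.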

[1] = test system: Antibody to Immunogen III
Outline: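 Plates were coated with IgG from antiserum to Immunogen III, and JWH-250 standards (0–40 ng/ml) competed with hapten-HRP conjugate for 1 h at 25°C. Detection used TMB with A450. IC50 is the concentration giving half the 0 ng/ml OD on a 4-parameter fit, and cross-reactivity was taken from calibration curves using a single level of each cross-reactant.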

[2] = Cross-reactants at 100 ng/ml, 1000ng/ml, single level of cross reactants

In the case of `COc1ccc(C(=O)c2cn(CCCCCO)c3ccccc23)cc1` [RCS-4 N-(5-hydroxypentyl) metabolite], the “%B/B0” value (Antibody to Immunogen V; [2]) was 63.69%, the “%B/B0” value (Antibody to Immunogen VI; [2]) was 3.76% and the “%B/B0” value [1, 2] was 72.34%.

`CCCCCn1cc(C(=O)c2ccc(OC)cc2)c2ccccc21` [RCS-4] was tested, and the “%B/B0” value (Antibody to Immunogen V; [2]) was 64.84%, the “%B/B0” value (Antibody to Immunogen VI; [2]) was 4.90% and the “IC50” value (Antibody to Immunogen VI; standard RCS-4, standard concentration which produces 50% B/B0) was 1.020 ng/mL. The “%B/B0” value (Antibody to Immunogen VI; standard curve, RCS-4 0.3125 ng/ml) was 74%, the “%B/B0” value (Antibody to Immunogen VI; standard curve, RCS-4 0.625 ng/ml) was 60% and the “%B/B0” value (Antibody to Immunogen VI; standard curve, RCS-4 1.25 ng/ml) was 46%. For the same molecule, the “%B/B0” value (Antibody to Immunogen VI; standard curve, RCS-4 2.5 ng/ml) was 34%, the “%B/B0” value (Antibody to Immunogen VI; standard curve, RCS-4 5 ng/ml) was 25% and the “%B/B0” value (Antibody to Immunogen VI; standard curve, RCS-4 10 ng/ml) was 18%. For the same molecule, the “%B/B0” value (Antibody to Immunogen VI; standard curve, RCS-4 20 ng/ml) was 13% and the “%B/B0” value [1, 2] was 57.10%.

`COc1cccc(CC(=O)c2cn(CCC3CCCCC3)c3ccccc23)c1` [RCS-8 3-methoxy isomer] was tested, and the “%B/B0” value (Antibody to Immunogen V; [2]) was 38.01%, the “%B/B0” value (Antibody to Immunogen VI; [2]) was 79.95% and the “%B/B0” value [1, 2] was 69.47%.

With `COc1ccc(CC(=O)c2cn(CCC3CCCCC3)c3ccccc23)cc1` [RCS-8 4-methoxy isomer] the “%B/B0” value (Antibody to Immunogen V; [2]) was 81.97%, the “%B/B0” value (Antibody to Immunogen VI; [2]) was 89.48% and the “%B/B0” value [1, 2] was 76.06%.

In the case of `COc1ccccc1CC(=O)c1cn(CCC2CCCCC2)c2ccccc12` [RCS-8 (SR-18)], the “%B/B0” value (Antibody to Immunogen V; [2]) was 8.34%, the “IC50” value (Antibody to Immunogen V; standard RCS-8, standard concentration which produces 50% B/B0) was 7.23 ng/mL and the “%B/B0” value (Antibody to Immunogen V; standard curve, RCS-8 1.25 ng/ml) was 82%. The “%B/B0” value (Antibody to Immunogen V; standard curve, RCS-8 2.5 ng/ml) was 71%, the “%B/B0” value (Antibody to Immunogen V; standard curve, RCS-8 5 ng/ml) was 57% and the “%B/B0” value (Antibody to Immunogen V; standard curve, RCS-8 10 ng/ml) was 43%. For the same molecule, the “%B/B0” value (Antibody to Immunogen V; standard curve, RCS-8 20 ng/ml) was 34%, the “%B/B0” value (Antibody to Immunogen V; standard curve, RCS-8 40 ng/ml) was 25% and the “%B/B0” value (Antibody to Immunogen V; standard curve, RCS-8 80 ng/ml) was 19%. For the same molecule, the “%B/B0” value (Antibody to Immunogen VI; [2]) was 85.46% and the “%B/B0” value [1, 2] was 64.72%.

In the case of `NCCc1c[nH]c2ccc(O)cc12` [Serotonin HCl], the “%B/B0” value (Antibody to Immunogen V; [2]) was 85.91%, the “%B/B0” value (Antibody to Immunogen VI; [2]) was 98.60% and the “%B/B0” value [1, 2] was 87.69%.

In the case of `O=C(c1cccc2ccccc12)c1cn(CCN2CCOCC2)c2ccccc12` [WIN 55,225 (other name JWH-200)], the “%B/B0” value (Antibody to Immunogen V; [2]) was 49.45%, the “%B/B0” value (Antibody to Immunogen VI; [2]) was 71.03% and the “%B/B0” value [1, 2] was 88.39%.

`COc1ccc(C(=O)c2c(C)n(CCN3CCOCC3)c3ccccc23)cc1` [WIN-48,098 (other name Pravadoline), Pravadoline] was tested, and the “%B/B0” value (Antibody to Immunogen V; [2]) was 77.87%, the “%B/B0” value (Antibody to Immunogen VI; [2]) was 23.84% and the “%B/B0” value [1, 2] was 89.21%.

In the case of `CS(=O)(=O)O.Cc1c(C(=O)c2cccc3ccccc23)c2cccc3c2n1[C@@H](CN1CCOCC1)CO3` [Win 55,212-3 mesylate], the “%B/B0” value (Antibody to Immunogen V; [2]) was 72.78%, the “%B/B0” value (Antibody to Immunogen VI; [2]) was 83.98% and the “%B/B0” value [1, 2] was 87.64%.

With (+)-CP 55,940 the “%B/B0” value (Antibody to Immunogen V; [2]) was 74.18%, the “%B/B0” value (Antibody to Immunogen VI; [2]) was 94.76% and the “%B/B0” value [1, 2] was 92.49%.

(-)-11-nor-9-Carboxy-delta9-THC was tested, and the “%B/B0” value (Antibody to Immunogen V) was 89.31%, the “%B/B0” value (Antibody to Immunogen VI) was 96.32% and the “%B/B0” value [1] was 89.45%.

(-)-CP 55,940 was tested, and the “%B/B0” value (Antibody to Immunogen V; [2]) was 91.41%, the “%B/B0” value (Antibody to Immunogen VI; [2]) was 94.76% and the “%B/B0” value [1, 2] was 90.16%.
